# Measured values from publication PMC7248809, “Differential Proliferation Effect of the Newly Synthesized Valine, Tyrosine and Tryptophan–Naphthoquinones in Immortal and Tumorigenic Cervical Cell Lines” (Molecules, 2020).
# Tests used:
# [1] = Cyclic voltammetry in 0.1 M TBABF4/DMSO; details: for irreversible oxidation potential peak (positive potential region) / irreversible anodic peak (negative potential region): Figure 2, vs Ag/Ag+, 100 mV s^−1; for ipa: anodic peak current density; for ipa / Epa / ipc / Epc / E1/2 / ΔEp / |ipa/ipc|: TBABF4 0.1 M/DMSO, 100 mV/s; for Epa: anodic peak potential of redox reaction; for Epa / Epc: vs Ag/Ag+ pseudo-reference; for ipc: cathodic peak current density; for Epc: cathodic peak potential of redox reaction; for E1/2: half-wave potential, E1/2 = (Epa + Epc)/2, vs Ag/Ag+; for ΔEp: potential peak separation, ΔEp = Epc − Epa; for |ipa/ipc|: ratio of anodic to cathodic peak current (reversibility)
# Description: Electrochemical studies of naphthoquinone–amino acids (3a–c) and chloride–naphthoquinone–amino acids (4a–c) derivatives were studied by cyclic voltammetry (CV) as previously reported [24]. Briefly, non-aqueous solutions of compounds 3a–c or 4a–c at a concentration of 5 mM were dissolved in dimethyl sulfoxide (DMSO, Sigma–Aldrich, St. Louis, MO, USA) containing 0.1 M tetrabutylammonium tetrafluoroborate (TBABF4, Sigma–Aldrich, St. Louis, MO, USA) as supporting electrolyte. Then, the non-aqueous solutions containing 3a–c or 4a–c were studied by CV in a three-electrode cell using a freshly polished glassy carbon disk electrode (GC) (0.07 cm^2, BASi, West Lafayette, IN, USA) as working electrode and a Pt wire (Alfa-Aesar, Tewksbury, MA, USA) as counter electrode. An Ag/Ag^+ electrode in 0.1 M TBABF4/DMSO was used as pseudo-reference electrode. A potential scan was performed from −2.0 V to 0.75 V vs. Ag/Ag^+ at 100 mV s^−1 in the cathodic direction in order to identify any electron transfer reaction associated to compounds 3a–c or 4a–c using a potentiostat/galvanostat PAR VersaStat 3 (Ametek, Inc. Berwyn, PA, USA). Furthermore, any redox reaction processes of 3a–c or 4a–c were further studied at a scan rate of 10, 25, 50, 100, 200, and 300 mV s^−1. As received TBABF4 and DMSO were used without further purification or drying processes. All the non-aqueous testing solutions were degassed for 30 min with high-purity N2 gas before cyclic voltammetry experiments.
# [2] = test system: SiHa cells (HPV-16 positive cervical tumor line); assay: Cell proliferation (crystal violet), dose-response, SiHa; details: Homo sapiens, 72 h
# Description: (§1) Immortal and HPV negative cell line HaCaT cells was selected as control for both immortality status and HPV content. […] In order to evaluate the effect of the naphthoquine amino acid derivatives in immortal and tumorigenic cells with HPV positive and negative status we performed a dose-response analysis.
# (§2) (A) HaCaT HPV negative cell line cells were treated with 6.25, 12.5, 25, 50, 100 and 200 μM of naphthoquinone amino acid derivatives to assay proliferation rate at 72 h post-treatment. (B) SiHa HPV 16 positive cancer cells were treated with 6.25, 12.5, 25, 50, 100 and 200 μM of naphthoquinone amino acid derivatives to assay proliferation rate at 72 h post-treatment. (C) CaLo HPV 18 positive cancer cells were treated with 6.25, 12.5, 25, 50, 100 and 200 μM of naphthoquinone amino acid derivatives to assay proliferation rate at 72 h post-treatment. […] Cells treated with 0.1% of DMSO were used as Control. * represents statistically significant p < 0.05 value.
# (§3) Cell proliferation was quantified by violet crystal dye in 1X phosphate-buffered saline (PBS) (2.7 mM KCl, 1.8 mM KH2PO4, 136 mM NaCl, 10 mM Na2HPO4 pH 7.4). The treated cells were incubated in methanol for 15 min and washed two times with distilled water. Cells were dyed with 0.1% crystal violet and washed three times with water and finally violet crystal was recovered with 10% acid acetic to be analyzed in microplate reader Multiskan GO Spectrophotometer (Thermo Scientific™, Ratastie, Finland).
# [3] = test system: CaLo cells (HPV-18 positive cervical tumor line); assay: Cell proliferation (crystal violet), dose-response, CaLo; details: 72 h
# Description: as §1, §2, §3
# [4] = test system: HaCaT cells (HPV negative non-tumorigenic immortal keratinocytes); assay: Cell proliferation (crystal violet), dose-response, HaCaT; details: Homo sapiens, 72 h
# Description: as §1, §2, §3
smiles,measurement,setting,value
"O=C1C=C(NC(Cc2ccc(O)cc2)C(=O)O)C(=O)c2ccccc21 (stereo not shown) [Compound 3a, 2-((1,4-dioxo-1,4-dihydronphthalen-2-yl)amino)-3-(4-hydroxyphenyl) propanoic acid]",melting point,,214 to 216 °C
same,irreversible oxidation potential peak (positive potential region),[1],higher than 0.5 V
same,ipa,[1],0.28 mA cm^−2
same,Epa,[1],−1.15 V
same,ipc,[1],−0.30 mA cm^−2
same,Epc,[1],−1.27 V
same,E1/2,[1],−1.21 V
same,ΔEp,[1],0.13 V
same,|ipa/ipc|,[1],0.95
same,IC50,[2],41 µM
same,IC50,[3],81.1 µM
same,IC50,[4],61.6 µM
"CC(C)C(NC1=CC(=O)c2ccccc2C1=O)C(=O)O (stereo not shown) [Compound 3b, 2-((1,4-dioxo-1,4-dihydronaphthalen-2-yl)amino)-3-methylbutanoic acid]",melting point,,170 to 172 °C
same,irreversible anodic peak (negative potential region),[1],−0.2 V
same,irreversible oxidation potential peak (positive potential region),[1],0.60 V
same,ipa,[1],0.28 mA cm^−2
same,Epa,[1],−1.16 V
same,ipc,[1],−0.30 mA cm^−2
same,Epc,[1],−1.27 V
same,E1/2,[1],−1.21 V
same,ΔEp,[1],0.12 V
same,|ipa/ipc|,[1],0.95
same,IC50,[2],47.2 µM
same,IC50,[3],57 µM
same,IC50,[4],55.3 µM
"O=C1C=C(NC(Cc2c[nH]c3ccccc23)C(=O)O)C(=O)c2ccccc21 (stereo not shown) [Compound 3c, 2-((1,4-dioxo-1,4-dihidronaphthalen-2-yl)amino)-3-(1H-indol-3-yl)propanoic acid]",irreversible oxidation potential peak (positive potential region),[1],0.45 V
same,ipa,[1],0.26 mA cm^−2
same,Epa,[1],−1.19 V
same,ipc,[1],−0.27 mA cm^−2
same,Epc,[1],−1.30 V
same,E1/2,[1],−1.24 V
same,ΔEp,[1],0.11 V
same,|ipa/ipc|,[1],0.95
same,IC50,[2],28.8 µM
same,IC50,[3],25.2 µM
same,IC50,[4],40.8 µM
"O=C1C(Cl)=C(NC(Cc2ccc(O)cc2)C(=O)O)C(=O)c2ccccc21 (stereo not shown) [Compound 4a, 2-((3-chloro-1,4-dioxo-1,4-dihydronaphthalen-2-yl)amino)-3-(4-hydroxyphenyl)propanoic acid]",irreversible anodic peak (negative potential region),[1],−0.33 V
same,irreversible oxidation potential peak (positive potential region),[1],higher than 0.5 V
same,ipa,[1],0.22 mA cm^−2
same,Epa,[1],−1.04 V
same,ipc,[1],−0.24 mA cm^−2
same,Epc,[1],−1.15 V
same,E1/2,[1],−1.10 V
same,ΔEp,[1],0.11 V
same,|ipa/ipc|,[1],0.92
same,IC50,[2],6.83 µM
same,IC50,[3],7.03 µM
same,IC50,[4],9.88 µM
"CC(C)C(NC1=C(Cl)C(=O)c2ccccc2C1=O)C(=O)O (stereo not shown) [Compound 4b, 2-((3-chloro-1,4-dioxo-1,4-dihydronaphthalen-2-yl)amino)-3-methylbutanoic acid]",melting point,,54 to 56 °C
same,irreversible anodic peak (negative potential region),[1],−0.36 V
same,irreversible oxidation potential peak (positive potential region),[1],0.57 V
same,ipa,[1],0.21 mA cm^−2
same,Epa,[1],−1.05 V
same,ipc,[1],−0.25 mA cm^−2
same,Epc,[1],−1.19 V
same,E1/2,[1],−1.12 V
same,ΔEp,[1],0.14 V
same,|ipa/ipc|,[1],0.83
same,IC50,[2],11.3 µM
same,IC50,[3],2.88 µM
same,IC50,[4],7.97 µM
"O=C1C(Cl)=C(NC(Cc2c[nH]c3ccccc23)C(=O)O)C(=O)c2ccccc21 (stereo not shown) [Compound 4c, 2-((3-chloro-1,4-dioxo-1,4-dihydronaphthalen-2-yl)amino)-3-(1H-indol-3-yl)propanoic acid]",irreversible anodic peak (negative potential region),[1],−0.36 V
same,irreversible oxidation potential peak (positive potential region),[1],0.46 V
same,ipa,[1],0.23 mA cm^−2
same,Epa,[1],−1.05 V
same,ipc,[1],−0.27 mA cm^−2
same,Epc,[1],−1.17 V
same,E1/2,[1],−1.11 V
same,ΔEp,[1],0.12 V
same,|ipa/ipc|,[1],0.85
same,IC50,[2],3.21 µM
same,IC50,[3],2.7 µM
same,IC50,[4],~0.331 µM
